# Target: C-C chemokine receptor type 6 (Homo sapiens) (UniProt P51684)
# Experiment: inhibition of CXCL13-driven CXCR5 beta-arrestin recruitment – cell-based, luminescence, CHO-K1 PathHunter, selectivity assay for CCR6 antagonist project, SAR follow-up (AID 540340)
# Conditions: CCR6 beta-arrestin antagonism, AID540334
# Sequence of C-C chemokine receptor type 6 (Homo sapiens) (P51684 whole entry, looked up): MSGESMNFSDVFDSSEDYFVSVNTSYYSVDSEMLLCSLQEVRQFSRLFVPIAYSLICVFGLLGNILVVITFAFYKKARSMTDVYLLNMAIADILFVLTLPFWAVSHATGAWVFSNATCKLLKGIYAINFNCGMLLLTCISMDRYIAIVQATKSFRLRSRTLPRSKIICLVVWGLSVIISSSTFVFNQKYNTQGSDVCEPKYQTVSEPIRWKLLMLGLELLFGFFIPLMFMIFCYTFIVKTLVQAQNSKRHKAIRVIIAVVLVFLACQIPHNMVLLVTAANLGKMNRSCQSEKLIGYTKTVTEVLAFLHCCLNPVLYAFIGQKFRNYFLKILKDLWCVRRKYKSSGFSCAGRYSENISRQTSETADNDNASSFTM
row,SMILES,IC50 [µM]
1,CN1CCc2nc(SCc3ccc(Cl)cc3)c(C#N)c(-c3cccs3)c2C1,> 66.6
2,Cc1cccc2c1N(CCCOc1ccc(C(C)(C)C)cc1)C(=O)C2=O,> 66.6
3,O=C1C2C3C=CC(CO)(O3)C2C(=O)N1c1ccccc1-c1ccccc1 (stereo unspecified),> 66.6
4,Cn1c(O)c(C2=NNC(c3ccc(Cl)cc3)C2)c(=O)n(C)c1=O (stereo unspecified),5.84
5,C/C=C(\C)C(=O)OC1[C@H](OC(C)=O)C2(CO)C(CC1(C)C)C1=CCC3C4(C)CCC(O[C@@H]5O[C@H](C(=O)O)[C@@H](O[C@@H]6O[C@H](CO)[C@@H](O)[C@H](O)[C@H]6O)[C@H](O)[C@H]5O[C@H]5O[C@H](CO)[C@@H](O)[C@H](O)[C@H]5O)[C@](C)(CO)C4CCC3(C)[C@]1(C)C[C@H]2O (stereo partly specified),7.82
6,CCCCCCCCCCCCC/C=C/[C@@H](O)[C@@H](N)CO,20.9
